Measured values taken from patent publication US10786475B2, “Method for preventing, treating, or improving fatty liver by administering effective amounts of azelaic acid to a subject” (Korea University Research and Business Foundation, priority 2018, dated 2020).

Experiments:
[1] = tested on: Olfr544; test: p-CREB/CREB western blotting in Hepa1c1c-7 cells, normal and Olfr544 knockdown; format: cell-based, mouse
Description: To more clearly confirm whether an AzA acts as an Olfr544 ligand, an Olfr544 knockdown cell line was constructed using a vector including shRNA, and protein expression levels of normal cells and knockdown cells were compared by performing an experiment as follows. To construct an Olfr544 knockdown cell line, particularly, an oligonucleotide (top strand [SEQ ID NO: 1]: 5′-[…]-ACAGTGAG-3′) encoding an Olfr544-targeted shRNA hairpin sequence or an oligonucleotide (top strand [SEQ ID NO: 2]: 5′-[…]-3′) encoding non-targeting scrambled shRNA hairpins were inserted into an shRNA cloning site of a pENTR/U6 vector using a BLOCK-iT U6 RNAi entry vector kit (Invitrogen). Subsequently, Hepa1c1c-7 or 3T3-L1 cells were seeded on a 6-well plate and transfected with 2.5 μg of Olfr544 shRNA or scrambled shRNA using 10 μL Lipofectamine 2000 (Invitrogen) for 48 hours, thereby constructing an Olfr544 knockdown cell line. […]
To confirm whether an Olfr544 protein was expressed, protein fractions (cell membrane protein, cytosol protein) and total proteins (whole protein extract), which were extracted by the method of Example 2-3, were quantified by a Bradford method. […] The expression level of each gene was standardized using β-actin or GAPDH expression, and the comparison of the contents of protein bands of western blots was quantified and digitized using software (Gel-Pro Analyzer 4.0). […]

[2] = tested on: Olfr544 KO mouse; test: Fatty liver inhibitory effect in high-fat diet Olfr544 KO mouse; format: in vivo
Method: Mice used in the example, which were an eight-week-old C57BL/6J model, were purchased from Samtako, and Olfr544 KO mice were manufactured by Macrogen based on the C57BL/6J model using a CRISPR/Cas9 system. All experiments performed in the example are compliant to a protocol approved by the Animal Experiment Ethics Committee at Korea University (Protocol No. KUIACUC-20170322-1). The mice were acclimated at 21 to 25° C. under a 50 to 60% relative humidity condition for 12 hours before being used in the experiments, and a total of 18 mice were treated with an AzA diluted with distilled water at 50 mg/kg of body weight and distilled water as a control through oral administration for 6 weeks. The mice used in the experiments were fed a high-fat diet containing 60% fat (D12492, Research Diets, Inc) to induce fatty liver, and then a body weight was measured every week. […] An oxygen consumption amount (VO2) and a carbon dioxide production amount (VCO2) were analyzed using an Oxylet Physiocage System (Panlab/Harvard apparatus, Cornella, Spain) and suiteMETABOLISM (V2.2.01, Panlab) software. A respiratory quotient (RQ) was calculated using the formula VCO2/VO2, and energy expenditure was analyzed using the formula EE=VO2×1.11×(3.815+1.232×RQ). The oxidation of a free fatty acid was calculated using the formula (1.6946×VO2)−(1.7012×VCO2). An AzA (100 mg/kg) was intraperitoneally administered, and then concentration of a glycerol, which is a body fat decomposition marker, was measured. […] To measure glucose resistance and insulin resistance, a glucose and insulin resistance test was performed under a condition, in which glucose ([…]) and insulin (0.35 unit/kg/bw) are administered to a mouse.

[3] = tested on: ob/ob mouse; test: Fatty liver inhibitory effect in ob/ob mouse; format: in vivo; conditions: 60% high-fat diet, AzA 50 mg/kg oral, 6 weeks
Method: A 7-week-old male fatty liver model ob/ob mouse was purchased from Central Laboratory Animal Inc. to be used in an experiment. An AzA was orally administered at 50 mg/kg of body weight along with a 60% high-fat diet (HFD) for 6 weeks. As the experiment progresses, body weight was measured once a week, and food intake was measured […] on the last week. The concentration of triglycerides in liver tissue was measured by homogenizing liver tissue of a mouse in 600 μL of acetone (Daejung, Korea), storing the homogenate at 4° C. for 24 hours, and obtaining a fat part by centrifugation at 12000 rpm for 10 minutes. The fat part was dried, dissolved in 95% ethanol, quantified using a Cobas C11 autoanalyzer (Roche, Basel, Switzerland) and normalized with a liver weight. A fatty acid oxidation rate was measured and analyzed by the method of Example 4-4 described above.

[4] = Olfr544 KO mouse, HFD and AzA for 6 weeks

SMILES: O=C(O)CCCCCCCC(=O)O [AzA, nonanedioic acid]
- increase in p-CREB/CREB ratio ([1]; Hepa1c1c-7 cells with Olfr544 knockdown by shRNA transfection): not observed
- p-CREB/CREB ratio ([1]; Hepa1c1c-7 cells, AzA-treated group): significantly increased
- glucose resistance (glucose resistance test) ([2]; KO mouse): not observed
- insulin resistance (insulin resistance test) ([2]; KO mouse): not observed
- abdominal fat (microCT) ([2]; KO mouse, AzA 50 mg/kg/day): no such effects
- total fat amount (microCT) ([2]; KO mouse, AzA 50 mg/kg/day): no such effects
- blood glycerol concentration (body fat decomposition marker) ([2]; KO mouse, AzA 100 mg/kg intraperitoneally): no effect
- oxidation of free fatty acids (indirect calorimetric analysis) [2, 4]: these effects were not shown
- respiratory quotient (indirect calorimetric analysis) [2, 4]: these effects were not shown
- expression of PPARα and a target gene thereof (Hmgcs2) in liver tissue [3]: significantly increased
- triglyceride concentration in liver tissue [3]: reduced
- body weight ([3]; compared with control group): decreased
